These results are taken from patent publication US20250041277A1, “METHODS AND DOSING REGIMENS COMPRISING A CDK2 INHIBITOR AND A CDK4 INHIBITOR FOR TREATING CANCER” (PFIZER INC., priority 2021, published 2025).

Structures are written as SMILES. Values joined by “and” are separate entries in the source; they are usually repeats but may differ in a detail not shown here. Equal values may be shown once.

Assay [1] deals with MCF7 breast cancer cell line. The assay is described as follows: Cell proliferation combination assay (Loewe Volume, CI), MCF7. Type of assay: cell-based, Human. To be noted: MCF7 cells; for Best CI: Best CI Level 70. As to the method: The combination effects of PF-07104091 and PF-07220060 were evaluated in a cell proliferation assay with MCF7 and T47D BC cell lines.
Drug combinations were analyzed using the Dose Equivalence Principle, and the Loewe Volume score. When modeling synergy using the Dose Equivalence Principle, the Loewe Volume score for the combination compounds should be greater than the compound self-cross controls, and the Combination Index (C) score for the combination compounds should be less than compound self-cross controls. […] The isobolograms set to an anti-proliferation threshold at 70% confirmed a synergistic response.

Assay [2] has as its system NCI-H23 lung adenocarcinoma (LUAD) cells. The assay can be described thus: Spheroid growth inhibition (SGI) assay, NCI-H23. Type of assay: cell-based. To be noted: NCI-H23 spheroids; 30 nM palbociclib, 300 nM PF-07220060, 300 nM PF-07104091; 14 days. As to the method: NCI-H1792 and NCI-H23 lung adenocarcinoma (LUAD) cells lines were obtained from ATCC and maintained in RPMI 1640 medium supplemented with 10% fetal bovine serum and penicillin-streptomycin as per ATCC guidelines. Cells were maintained in humidified incubator at 37° C. with 5% CO2.
Spheroid assays were performed in 96 well ultralow attachment plates (ULA-96U) from Nexcelom & Thermo Fisher Scientific. […] To aid spheroid formation, dispensed cells were centrifuged at 220×g for 6 minutes in the ultralow attachment plates and allowed to form compact spheroids for 4 days prior to the initiation of treatment. […] DMSO (0.01%) was used as the vehicle control. DMSO and all compounds were diluted in cell medium. Medium and compounds were replenished twice per week, with 3 and 4-day intervals. Replenishment was executed by aspirating 150 μL of medium per well without disturbing the spheroid and then adding the same volume of premixed medium/compound solution to spheroids. Spheroid diameter was quantified immediately following each medium change twice a week (on every 3rd or 4th day) throughout the duration of the assay.
Average diameters of tumor spheroids were plotted in GraphPad Prism 8 and the AUC calculated. AUC baseline was determined by the average tumor spheroid diameter at Day 0 in the vehicle (DMSO) controls. Spheroid growth inhibition, or SGI, was calculated as follows: SGI=(1−AUC treatment/AUC DMSO)×100%. SGI for all treatment arms was derived at the timepoint when the vehicle (DMSO) treated spheroids reach their maximal diameter (usually close to 1 mm but this can differ among cell lines); this corresponds to the last time point taken for the vehicle (DMSO) treated spheroids. SEM was calculated based on n=10 to 12 wells per test group.
Growth of lung adenocarcinoma multicellular tumor spheroids (MCTS) was monitored over time to assess: (i) amplitude of response (SGI) and (ii) duration of response to the CDK4 inhibitor PF-07220060 as a single agent, and in combination with the CDK2 inhibitor PF-07104091.

A further assay relates to ST941 PBR PDX model. The assay can be described thus: In vivo efficacy, palbociclib-resistant ST941 PBR PDX model (Example 3). Set-up: species or system NSG mice. To be noted: ST941PBR, Day 28; PO BID: PF-07104091 150 mpk, PF-07220060 60 mpk, palbociclib 10 mpk; fulvestrant 10 mpk SC 2x week 1 then weekly. The protocol: (§1) Female NSG mice (Jackson Lab) were subcutaneously implanted with fragment (27 mm^3 to 64 mm^3 size) into the dorsal region. All mice for T47D, HCC1428 and ST941 PBR studies were supplemented with 8.5 μg/mL estradiol water (β-Estradiol Sigma-Aldrich, cat #E2758-5G) and gave ad libitum till end of study. For the in vivo efficacy studies, tumor volume and body weights were measured twice a week. Tumor volume was calculated using the [(Length×Width×Width)/2)] formula. TGI was calculated as 100*(1−ΔT/ΔC). The ΔC (ΔT) was obtained by subtracting the mean tumor burden in the vehicle (treated) group on the first day of treatment (Day 0) from the mean tumor burden in vehicle (treated) group on the assessment day. Statistical analysis was performed using ANCOVA when the mean tumor volume in vehicle treated mice reached tumor cutoff size.
We established model in house by continuous treatment of the ST941 PBR tumor bearing mice with PD-0332991 at 50 mg/kg, PO QD plus fulvestrant at 10 mg/kg, SC twice in the first week, then weekly thereafter. To propagate donors for the TGI study, tumors were transplanted to recipient mice. One week after the re-implantation, the recipient mice received continuous treatment with palbociclib plus fulvestrant (dosing schedule described above). After 1 to 2 serial in vivo propagation with the same treatment regimen, the resistant tumors in the range of 700 to 800 mm^3 were re-implanted for a study expansion. The remaining tumor fragments were viably frozen for future use.
The live donor mice were established by implanting ST941 PBR (p11) tumor fragments. Once reaching a range of 700 to 800 mm^3, the donor tumors were subsequently transplanted into secondary recipient mice for a study expansion. To maintain the resistant clones, the ST941 PBR tumor bearing mice were treated with PD-0332991 at 50 mg/kg, PO. QD plus fulvestrant at 10 mg/kg, SC twice in the first week, then weekly afterwards for 10 weeks. The treatment was initiated one week after the implant until day of randomization for study enrollment. […] TGI was assessed on Day 28 post first dose.

Another assay has as its system T47D breast cancer model. The assay can be described thus: In vivo efficacy, HR+/HER2− T47D breast cancer model (Example 3). Set-up: species or system NSG mice. To be noted: Day 41, PO BID: PF-07104091 150 mpk, PF-07220060 60 mpk, palbociclib 10 mpk. As to the method:
as §1
The T47D model was established by implanting passage 3 tumor fragments into recipient mice. To establish the T47D donor mice, tumor cells (5×10^6 cell/mouse with 50% Cultrex® Basement Membrane Matrix) were subcutaneously implanted in female NSG mice. Once reaching a range of 700 to 800 mm^3, donor tumors were subsequently transplanted into secondary recipient mice for a study expansion. […] PF-07104091 (lot 016), PF-07220060 (lot 019) and PD-0332991 (lot GR08498) were administered (PO.) BID (7 hr apart). All mice received treatment continuously until Day 41. TGI was assessed on Day 41 post first dose.

In another assay the test system is H2030. The assay is described as follows: Combinatorial activity in LUAD cell line H2030. It counts as cell-based. To be noted: Homo sapiens, NCI-H2030; H2030, KRAS G12C; single agent; read-out: (nM) s.a. As to the method:
(§2) Combinatorial activity of PF-07104091 and PF-07220060 was assessed in LUADs as single agents (s.a.) or in combination.

A further assay has as its system H358. The assay can be described thus: Combinatorial activity in LUAD cell line H358. To be noted: Homo sapiens, NCI-H358; H358, KRAS G12C; single agent; read-out: (nM) s.a. Type of assay: cell-based. The protocol: as §2

As to `COCc1cc(C(=O)Nc2cc([C@H]3CC[C@@H](OC(=O)NC(C)C)C3)[nH]n2)n(C)n1` [PF-07104091, (1R,3S)-3-[3-({[3-(methoxymethyl)-1-methyl-1H-pyrazol-5-yl]carbonyl}amino)-1H-pyrazol-5-yl]cyclopentyl propan-2-ylcarbamate], the “Loewe Volume” value in assay [1] is on record as −0.08. In addition, in assay [1], the “Best CI” value was found to be 1.04. In addition, the “SGI (%)” value in assay [2] stood at 9%. Also, the TGI % is 34% and 24^* % in the assay on ST941 PBR PDX model; 82% in the assay with T47D breast cancer model.
Regarding `CC(C)n1c(C(C)(C)O)nc2c(F)cc(-c3nc(N[C@@H]4CCOC[C@H]4O)ncc3Cl)cc21` [PF-07220060, 1,5-anhydro-3-({5-chloro-4-[4-fluoro-2-(2-hydroxypropan-2-yl)-1-(propan-2-yl)-1H-benzimidazol-6-yl]pyrimidin-2-yl}amino)-2,3-dideoxy-D-threo-pentitol], the “Loewe Volume” value in assay [1] is −0.02. The “Best CI” value in assay [1] worked out at 1.06. Moreover, the “SGI (%)” value in assay [2] is given as 35%. In addition, the IC50 in the assay on H2030 was 950 nM; with H358, 120 nM. The TGI % in the assay with ST941 PBR PDX model is listed as 28%; in the assay on T47D breast cancer model it was 73%.
